# Measured values as given in US12419308B2, “Phenylpyrazole insecticide compounds and compositions” (priority 2023, dated 2025).
# Where two headings read alike, the source gives them in different places.
# Key:
# [1] = test system: Human Cryopreserved Hepatocytes; assay: Metabolic stability in human cryopreserved hepatocytes; type: in vitro ADME
# Protocol: The metabolic stability of the Compounds of Examples 1 and 4 is therefore evaluated to determine whether metabolic degradation results in metabolites of concern.
# Briefly, Human Cryopreserved Hepatocytes (Gibco, lot. HUE125) are added to incubation wells in a 96-well assay plate at a density of 500,000 cells/mL in William's E Medium. […] The wells are incubated at 37° C. and stop solution is added to wells at time points: 0, 30, 60, 120, 240 min. The stop solution is ice-cold solution containing 0.5 μM labetalol in acetonitrile (100 μL/well) (2:1, vol/vol). Each time point is tested in triplicate. Analysis is carried out by LC-MS.
# • Instrument: QExactive • Column: Luna Omega 1.6 μm polar C18 100 Å (150×2.1 mm) • Column temperature: 40° C. • Column No: 102+pre-column installed • Injection volume: 2 μl • Flux: 0.40 mL/min • Polarity: Negative • Fluent A: water Milli Q+0.1% FA • Fluent B: ACN+0.1% FA • Acquisition method: Full MS+DDS on the IL obtained with MassMetaSite (peak others ON).
# Dermanyssus gallinae = assay: Antiparasitic efficacy on live chickens with natural mite infestation; type: in vivo; details: by day 5 of treatment; 0.25% (w/v) spray, 7.5 mg/kg once daily for 5 days
# Protocol: Two animals are treated with the compound of Example 1, and two animals are treated with Fipronil, while one animal is left untreated as a negative control. The infestation by D. gallinae is monitored by checking the density of mites in particular areas of the animal's bodies (feet, legs, and wings), comparing pre-treatment levels of infestation to post-treatment levels.
# When all pests have been eliminated, a 100% pest control capability was achieved. In the case of some chemical products, when the pest was not fully eliminated, the disinfestation capacity was measured by averaging the number of infesting organisms located in three distinct areas of the treated animals, at the beginning of the treatment, and at the end of the treatment.
# [2] = test system: adult worker honeybees, Apis mellifera L; details: contact
# Excerpt: In accordance with OECD Test Guidelines No. 213 and 214, the test is considered valid if: (1) the average mortality of the control groups is ≤10% at the end of the test; and the average, control-corrected mortality of the reference item groups is ≥50% at the end of the test, at the tested dose (internal validity criteria according to POS BT200).
# Young Apis mellifera L. worker honeybees are randomly collected in the morning of use or the day before from an adequately fed, healthy diseases-free and queen right beehive, not treated with chemical substances. Hives from an established apiary colony are used, and the colonies are inspected periodically, according to standard bee-keeping practices. All colonies are kept outside under field conditions and bees collect food from the environment. The last treatment against Varroa mites was done in November 2023. The bees are fed ad libitum with a water sucrose solution 50% w/v (or 500 g/L), prepared with tap water.
# Adult worker honeybees are exposed to three increasing doses of the test item (see Table 2) by direct application to the thorax (droplets, see section 4.5.2). One control group is treated with propanol-water solution (ratio 80%-20%) in addition to test item groups.
# Bee mortality is recorded after 4, 24 and 48 hours, and compared with the control value. If the mortality rate increases by more than 10% between 24 and 48 hours, whilst the control mortality rate remains ≤10%, the is extended to a maximum of 96 hours.
# The test item is diluted in propanol-water solution (ratio 80%-20%) to prepare the contact solutions.
# The bees used for the contact test are anaesthetized with carbon dioxide and individually treated by topical application of 2 μL of the test solutions onto the thorax using a micro applicator. The honeybees are then be moved to the cages and fed ad libitum with sucrose solution.
# Disposable and well-ventilated cages with an internal volume not lower than 200 cm^3 are used. Each cage is equipped with a transparent lid, for a suitable observation of the bees from outside. The upper side of the cage has at least one hole for inserting the feeder: a syringe filled of 50% (w/v) aqueous sucrose solution is inserted in one hole.
# The tests are conducted under the following conditions: (a) Temperature: 25.00[…]; (b) Relative humidity: 60.00[…], The honeybees are kept under constant darkness except during the assessments. Throughout the experimental phase, the temperature and relative humidity is continuously recorded with a dedicated data-logger with sensors located close to the test units.
# The number of dead honeybees per cage is recorded after 4, 24 and 48 hours. If a prolonged observation period is required, further assessments are made every 24 hours, tip to a maximum duration of 96 hours. The amount of diet consumed per group is quantitatively estimated if treated diet will be left after 6 hours of exposure.
# Data is summarized in tabular form, showing the number of live, dead and abnormal bees per experimental group. The mortality of each replicate is calculated as a percentage, comparing the number of dead bees to those introduced at the beginning. The mean value of the treated group is compared to the mean mortality of the respective control group(s) using the Abbott's formula modified by Schneider-Orelli (POS BT 200): […]
# [3] = human hepatocytes, up to 240 min, 1 μM
structure (smiles),measurement,setting,value
"N#Cc1nn(-c2c(Cl)cc(C(F)(F)F)cc2Cl)c2nc(O)cc(C(F)(F)F)c12 [Example 1, 1-(2,6-dichloro-4-(trifluoromethyl)phenyl)-6-hydroxy-4-(trifluoromethyl)-1H-pyrazolo[3,4-b]pyridine-3-carbonitrile]",Original compound still present,"[1]; after 240 minutes, 1 μM, 500,000 cells/mL, 37° C.",approximately 95.5%
same,Metabolic stability (in words),[1]; [3],metabolically stable
same,Metabolite peaks observed,[1]; [3],no particular peaks indicative of metabolites
same,Chickens free of mites,Dermanyssus gallinae,100%
same,% CM (4 hours),"[2]; group T1, dose 0.002 μg/bee",0.0%
same,% CM (24 hours),"[2]; group T1, dose 0.002 μg/bee",7.1%
same,% CM (48 hours),"[2]; group T1, dose 0.002 μg/bee",0.0%
same,% CM (4 hours),"[2]; group T2, dose 0.004 μg/bee",0.0%
same,% CM (24 hours),"[2]; group T2, dose 0.004 μg/bee",0.0%
same,% CM (48 hours),"[2]; group T2, dose 0.004 μg/bee",0.0%
same,% CM (4 hours),"[2]; group T3, dose 0.006 μg/bee",0.0%
same,% CM (24 hours),"[2]; group T3, dose 0.006 μg/bee",50.0%
same,% CM (48 hours),"[2]; group T3, dose 0.006 μg/bee",57.7%
